Measured values from the CheMixHub ionic liquid set.
± gives the uncertainty stated by the source.

Assay: xn = mol fraction of the nth substance listed
Settings: 101 kPa

CC(=O)Oc1ccccc1C(=O)O + CC#N + CCCCCC[n+]1ccn(C)c1.[Br-]
viscosity [mPa·s]
Settings | 288.15 K | 298.15 K | 308.15 K | 318.15 K
x1 = 0.001647, x3 = 0 | 0.394 ± 0.009 | 0.349 ± 0.008 | 0.316 ± 0.007 | 0.292 ± 0.006
x1 = 0.001682, x3 = 0.004167 | 0.408 ± 0.009 | 0.37 ± 0.008 | 0.336 ± 0.007 | 0.309 ± 0.007
x1 = 0.001814, x3 = 0.0117 | 0.434 ± 0.009 | 0.393 ± 0.008 | 0.372 ± 0.008 | 0.343 ± 0.007
x1 = 0.001864, x3 = 0.008116 | 0.431 ± 0.009 | 0.388 ± 0.008 | 0.353 ± 0.008 | 0.324 ± 0.007
x1 = 0.00335, x3 = 0.00416 | 0.412 ± 0.009 | 0.373 ± 0.008 | 0.34 ± 0.007 | 0.313 ± 0.007
x1 = 0.003412, x3 = 0 | 0.398 ± 0.009 | 0.353 ± 0.008 | 0.319 ± 0.007 | 0.295 ± 0.006
x1 = 0.003448, x3 = 0.01168 | 0.437 ± 0.009 | 0.396 ± 0.009 | 0.376 ± 0.008 | 0.346 ± 0.007
x1 = 0.003521, x3 = 0.008102 | 0.435 ± 0.009 | 0.391 ± 0.008 | 0.356 ± 0.008 | 0.327 ± 0.007
x1 = 0.004495, x3 = 0 | 0.402 ± 0.009 | 0.355 ± 0.008 | 0.322 ± 0.007 | 0.297 ± 0.006
x1 = 0.004647, x3 = 0.004154 | 0.416 ± 0.009 | 0.376 ± 0.008 | 0.343 ± 0.007 | 0.315 ± 0.007
x1 = 0.004832, x3 = 0.01167 | 0.441 ± 0.009 | 0.399 ± 0.009 | 0.38 ± 0.008 | 0.349 ± 0.008
x1 = 0.004834, x3 = 0.008092 | 0.438 ± 0.009 | 0.395 ± 0.009 | 0.359 ± 0.008 | 0.33 ± 0.007
x1 = 0.00569, x3 = 0 | 0.405 ± 0.009 | 0.358 ± 0.008 | 0.325 ± 0.007 | 0.3 ± 0.007
x1 = 0.005813, x3 = 0.004149 | 0.42 ± 0.009 | 0.38 ± 0.008 | 0.346 ± 0.007 | 0.317 ± 0.007
x1 = 0.005963, x3 = 0.008083 | 0.441 ± 0.009 | 0.398 ± 0.009 | 0.363 ± 0.008 | 0.333 ± 0.007
x1 = 0.006109, x3 = 0.01165 | 0.444 ± 0.01 | 0.402 ± 0.009 | 0.383 ± 0.008 | 0.352 ± 0.008
x1 = 0.006963, x3 = 0 | 0.408 ± 0.009 | 0.362 ± 0.008 | 0.328 ± 0.007 | 0.303 ± 0.007
x1 = 0.007083, x3 = 0.004144 | 0.423 ± 0.009 | 0.383 ± 0.008 | 0.349 ± 0.008 | 0.32 ± 0.007
x1 = 0.007249, x3 = 0.008072 | 0.444 ± 0.01 | 0.401 ± 0.009 | 0.366 ± 0.008 | 0.335 ± 0.007
x1 = 0.007314, x3 = 0.01164 | 0.448 ± 0.01 | 0.406 ± 0.009 | 0.386 ± 0.008 | 0.355 ± 0.008
x1 = 0.00845, x3 = 0 | 0.412 ± 0.009 | 0.365 ± 0.008 | 0.331 ± 0.007 | 0.306 ± 0.007
x1 = 0.008753, x3 = 0.004137 | 0.428 ± 0.009 | 0.387 ± 0.008 | 0.354 ± 0.008 | 0.324 ± 0.007
x1 = 0.008914, x3 = 0.008059 | 0.448 ± 0.01 | 0.405 ± 0.009 | 0.369 ± 0.008 | 0.339 ± 0.007
x1 = 0.00934, x2 = 0.979 | 0.452 ± 0.01 | 0.41 ± 0.009 | 0.39 ± 0.008 | 0.359 ± 0.008
x1 = 0.009969, x3 = 0 | 0.416 ± 0.009 | 0.369 ± 0.008 | 0.334 ± 0.007 | 0.309 ± 0.007
x1 = 0.009979, x3 = 0.004132 | 0.432 ± 0.009 | 0.39 ± 0.008 | 0.356 ± 0.008 | 0.327 ± 0.007
x1 = 0.01021, x2 = 0.9782 | 0.455 ± 0.01 | 0.412 ± 0.009 | 0.392 ± 0.008 | 0.361 ± 0.008
x1 = 0.01031, x3 = 0.008047 | 0.451 ± 0.01 | 0.408 ± 0.009 | 0.372 ± 0.008 | 0.342 ± 0.007
x1 = 0.01098, x3 = 0 | 0.419 ± 0.009 | 0.371 ± 0.008 | 0.337 ± 0.007 | 0.311 ± 0.007
x1 = 0.01114, x3 = 0.004127 | 0.436 ± 0.009 | 0.393 ± 0.008 | 0.359 ± 0.008 | 0.33 ± 0.007
x1 = 0.01158, x3 = 0.008037 | 0.454 ± 0.01 | 0.411 ± 0.009 | 0.375 ± 0.008 | 0.345 ± 0.007
x1 = 0.01173, x2 = 0.9767 | 0.458 ± 0.01 | 0.416 ± 0.009 | 0.396 ± 0.009 | 0.364 ± 0.008
x1 = 0.01219, x3 = 0 | 0.422 ± 0.009 | 0.375 ± 0.008 | 0.34 ± 0.007 | 0.314 ± 0.007
x1 = 0.0126, x3 = 0.004121 | 0.44 ± 0.009 | 0.396 ± 0.009 | 0.362 ± 0.008 | 0.333 ± 0.007
x1 = 0.01261, x2 = 0.9794 | 0.458 ± 0.01 | 0.414 ± 0.009 | 0.378 ± 0.008 | 0.348 ± 0.008
x1 = 0.01337, x2 = 0.9751 | 0.462 ± 0.01 | 0.42 ± 0.009 | 0.4 ± 0.009 | 0.368 ± 0.008
